We go through one compound from patent publication US6992088B2, “Nitro and amino substituted heterocycles as topoisomerase I targeting agents” (Rutgers, The State University of New Jersey, priority 2002, dated 2006).

The subject of data set [1] is HL60. Description: MTT-microtiter plate tetrazolinium cytotoxicity assay, HL60. The format is cell-based. The settings on record: Homo sapiens, HL-60, HL60 cells. On the procedure: (§1) Test B. Inhibition of Cell Growth: MTT-microtiter Plate Tetrazolinium Cytotoxicity Assay (RPMI 8402, CPT-K5, U937, U937/CR Cells)
(§2) The cytotoxicity is determined using the MTT-microtiter plate tetrazolinium cytotoxicity assay (MTA), see Chen A. Y. et al. Cancer Res. 1993, 53, 1332; Mosmann, T. J., J. Immunol. Methods 1983, 65, 55; and Carmichael, J. et al. Cancer Res. 1987, 47, 936. The human lymphoblast RPMI 8402 and its camptothecin-resistant variant cell line, CPT-K5 were provided by Dr. Toshiwo Andoh (Anchi Cancer Research Institute, Nagoya, Japan), see Andoh, T.; Okada, K, Adv. in Pharmacology 1994, 29B, 93. Human U-937 myeloid leukemia cells and U-937/CR cells were described by Rubin et al., J. Biol. Chem., 1994, 269, 2433-2439. The cytotoxicity assay is performed by using 96-well microtiter plates using 2000 cells/well, in […] of growth medium. Cells are grown in suspension at 37° C. in 5% CO2 and maintained by regular passage in RPMI medium supplemented with 10% heat-inactivated fetal bovine serum, L-glutamine (2 mM), penicillin (100U/mL), and streptomycin (0.1 mg/mL). For determination of IC50, cells are exposed continuously for 3-4 days to varying concentrations of drug, and MTT assays were performed at the end of the fourth day. […] All assays are performed at least twice in 6 replicate wells. […]

Data set [2] has as its system KBV-1. The data set is described as follows: MTT-microtiter plate tetrazolinium cytotoxicity assay, KBV-1. The format is cell-based. As to conditions: Homo sapiens, KB-V1, KBV-1 cells. On the procedure: as §1, §2
In data set [3] the test system is CPT-K5. Description: MTT-microtiter plate tetrazolinium cytotoxicity assay, CPT-K5 (camptothecin-resistant variant). As to conditions: Homo sapiens, CPT-K5 cells (camptothecin-resistant variant of RPMI 8402), continuous exposure 3-4 days. The format is cell-based. On the procedure: as §1, §2
Data set [4] concerns KBH5.0. The data set is described as follows: MTT-microtiter plate tetrazolinium cytotoxicity assay, KBH5.0. Type of data set: cell-based. The settings on record: KBH5.0 cells. On the procedure:
as §1, §2

Data set [5] concerns KB3-1. The data set is described as follows: MTT-microtiter plate tetrazolinium cytotoxicity assay, KB3-1. The format is cell-based. As to conditions: Homo sapiens, KB 3-1, KB3-1 cells. On the procedure: as §1, §2
Data set [6] relates to HL60/MX2. The data set is described as follows: MTT-microtiter plate tetrazolinium cytotoxicity assay, HL60/MX2. Type of data set: cell-based. As to conditions: Homo sapiens, HL60/MX2 cells. On the procedure:
as §1, §2

Data set [7] relates to RPMI8402. Description: MTT-microtiter plate tetrazolinium cytotoxicity assay, RPMI8402. The format is cell-based. As to conditions: Homo sapiens, RPMI 8402, RPMI8402 cells, continuous exposure 3-4 days. On the procedure: as §1, §2

Usually IC50 stands for the concentration that inhibits the measured activity by half. Higher therefore signals weaker potency. Broadly, the melting point is the temperature, or range, at which the solid turns liquid. With `CN(C)CCCn1c2c(c3ccc([N+](=O)[O-])cc3c1=O)C(=O)c1cc3c(cc1-2)OCO3` [Compound B], the melting point lay within 191 to 192 °C. Further, in data set [1], the IC50 turned out to be 0.003 µM. In data set [2], the IC50 was determined as 0.004 µM. The compound also had an IC50 in data set [3] of 2.4 µM. For the same compound, in data set [4], the IC50 was determined as 0.004 µM. The compound further displayed an IC50 in data set [5] of 0.004 µM. For the same compound, inhibition in data set [6] was half-maximal at 0.003 µM (IC50). The compound also registered an IC50 in data set [7] of 0.003 µM.
